Experimental data from ChEMBL document CHEMBL1201862, “PubChem BioAssay data set” (2004).
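Method: 48-hour compound exposure of cells in 96-well plates, five concentrations, linear interpolation of endpoints. GI50 marks 50% less growth.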 Calls of active or inactive are those of the source. Rule as the data show it: active = GI50 up to about 1.1 µM and inactive = higher.

Experiments:
Assay in all cases: DTP human tumour cell line panel, 48 h
[1] = test system: SF-268
[2] = test system: ACHN
[3] = test system: COLO 205
[4] = test system: MCF7
[5] = test system: A498
[6] = test system: OVCAR-8
[7] = test system: HT-29
[8] = test system: UACC-62
[9] = test system: OVCAR-4
[10] = test system: EKVX
[11] = test system: TK-10
[12] = test system: K562
[13] = test system: U-251
[14] = test system: HCT-116
[15] = test system: SF-295
[16] = test system: NCI-H460
[17] = test system: UACC-257
[18] = test system: SNB-19
[19] = test system: CCRF-CEM
[20] = test system: MDA-N

SMILES | GI50 [1] | GI50 [2] | GI50 [3] | GI50 [4] | GI50 [5] | GI50 [6] | GI50 [7] | GI50 [8] | GI50 [9] | GI50 [10] | GI50 [11] | GI50 [12] | GI50 [13] | GI50 [14] | GI50 [15] | GI50 [16] | GI50 [17] | GI50 [18] | GI50 [19] | GI50 [20]
CC(C)(C)/N=C1\C(=O)C2(C)CCC1C2(C)C (configuration not stated) | > 100 µM (inactive) | > 100 µM (inactive) | > 100 µM (inactive) | 16.8 µM (inactive) | 16.4 µM (inactive) | > 100 µM (inactive) | > 100 µM (inactive) | 14.3 µM (inactive) | > 100 µM (inactive) | > 100 µM (inactive) | > 100 µM (inactive) | > 100 µM (inactive) | > 100 µM (inactive) | > 100 µM (inactive) | > 100 µM (inactive) | > 100 µM (inactive) | > 100 µM (inactive) | > 100 µM (inactive) | – | –
CC1(C)CCC[C@]2(C)[C@@H]1CC[C@@]13O[C@@H]1C1=C(CO)C(=O)OC1=C[C@@H]23 | 15.2 µM (inactive) | 29.2 µM (inactive) | 16.5 µM (inactive) | 26.4 µM (inactive) | 27.2 µM (inactive) | – | 14 µM (inactive) | 13.5 µM (inactive) | 19.2 µM (inactive) | 13.9 µM (inactive) | 25.2 µM (inactive) | 21.4 µM (inactive) | 24.4 µM (inactive) | 1.44 µM (inactive) | 16.9 µM (inactive) | 18.2 µM (inactive) | 18.2 µM (inactive) | 13.6 µM (inactive) | – | –
O=C(Cc1ccccc1)Oc1ccc2c(-c3ccccc3)c(C(=O)Nc3ccc(Cl)cc3)c(=O)oc2c1 | > 100 µM (inactive) | > 100 µM (inactive) | > 100 µM (inactive) | – | > 100 µM (inactive) | > 100 µM (inactive) | > 100 µM (inactive) | > 100 µM (inactive) | > 100 µM (inactive) | > 100 µM (inactive) | > 100 µM (inactive) | > 100 µM (inactive) | > 100 µM (inactive) | > 100 µM (inactive) | > 100 µM (inactive) | > 100 µM (inactive) | > 100 µM (inactive) | > 100 µM (inactive) | > 100 µM (inactive) | –
CC(C)COP(C)(=O)C(N)(C(F)(F)F)C(F)(F)F (configuration not stated) | > 100 µM (inactive) | > 100 µM (inactive) | > 100 µM (inactive) | > 100 µM (inactive) | – | > 100 µM (inactive) | > 100 µM (inactive) | > 100 µM (inactive) | > 100 µM (inactive) | > 100 µM (inactive) | > 100 µM (inactive) | > 100 µM (inactive) | > 100 µM (inactive) | > 100 µM (inactive) | > 100 µM (inactive) | – | > 100 µM (inactive) | – | 88.1 µM (inactive) | > 100 µM (inactive)
COC(=O)CC(C(C(=O)OCc1ccccc1)C(C)O)N1C(=O)OC(c2ccccc2)C1c1ccccc1 (configuration not stated) | > 100 µM (inactive) | > 100 µM (inactive) | > 100 µM (inactive) | – | > 100 µM (inactive) | > 100 µM (inactive) | > 100 µM (inactive) | 52 µM (inactive) | > 100 µM (inactive) | > 100 µM (inactive) | > 100 µM (inactive) | 81.1 µM (inactive) | > 100 µM (inactive) | > 100 µM (inactive) | 64.6 µM (inactive) | > 100 µM (inactive) | > 100 µM (inactive) | > 100 µM (inactive) | > 100 µM (inactive) | –
CC(=O)O[C@H]1CC2C(C3CCC(C(C)CCC(N)=O)[C@]31C)[C@H](OC(C)=O)C[C@@H]1CC3(CC[C@]21C)OOC1(CC[C@]2(C)C4C[C@H](OC(C)=O)[C@]5(C)C(C(C)CCC(N)=O)CCC5C4[C@H](OC(C)=O)C[C@@H]2C1)OO3 (some centres not stated) | 1.75 µM (inactive) | 1.62 µM (inactive) | 1.11 µM (active) | 1.58 µM (inactive) | – | 1.55 µM (inactive) | 1.63 µM (inactive) | – | 1.83 µM (inactive) | 1.67 µM (inactive) | 1.8 µM (inactive) | 1.76 µM (inactive) | 1.6 µM (inactive) | 1.33 µM (inactive) | 1.53 µM (inactive) | 1.69 µM (inactive) | 1.49 µM (inactive) | 2.61 µM (inactive) | – | 1.65 µM (inactive)
CN1CCN(c2nc3cc(F)ccc3n3cccc23)CC1 | 48.6 µM (inactive) | 31.6 µM (inactive) | 26.9 µM (inactive) | 15.1 µM (inactive) | – | 51.8 µM (inactive) | 24.9 µM (inactive) | 29.4 µM (inactive) | 30.3 µM (inactive) | 33.7 µM (inactive) | 39.6 µM (inactive) | 20.4 µM (inactive) | 41.5 µM (inactive) | 25.5 µM (inactive) | 21.2 µM (inactive) | 18.5 µM (inactive) | 26.6 µM (inactive) | 60.3 µM (inactive) | 29.8 µM (inactive) | 30.4 µM (inactive)
Nc1cc(OCC2CCCCC2)nc(N)n1 | > 100 µM (inactive) | > 100 µM (inactive) | 87.3 µM (inactive) | – | – | > 100 µM (inactive) | > 100 µM (inactive) | > 100 µM (inactive) | > 100 µM (inactive) | 57.1 µM (inactive) | > 100 µM (inactive) | > 100 µM (inactive) | > 100 µM (inactive) | > 100 µM (inactive) | > 100 µM (inactive) | > 100 µM (inactive) | 76.9 µM (inactive) | > 100 µM (inactive) | > 100 µM (inactive) | > 100 µM (inactive)
